Measurements taken from ChEMBL document CHEMBL5260833, “An overview of quinazolines: Pharmacological significance and recent developments” (Eur J Med Chem, 2018).

Key:
Rattus norvegicus [1] = experiment: Inhibition of AII induced mean arterial blood pressure in rat assessed as vasoconstrictor at 5 mg/kg, po; assay type: functional
[2] = biological target: T1, Type-1 angiotensin II receptor A (Rattus norvegicus, UniProt P25095); experiment: Inhibition of rat adrenal cortex angiotensin II; assay type: tissue-based
T1 sequence (P25095 whole entry): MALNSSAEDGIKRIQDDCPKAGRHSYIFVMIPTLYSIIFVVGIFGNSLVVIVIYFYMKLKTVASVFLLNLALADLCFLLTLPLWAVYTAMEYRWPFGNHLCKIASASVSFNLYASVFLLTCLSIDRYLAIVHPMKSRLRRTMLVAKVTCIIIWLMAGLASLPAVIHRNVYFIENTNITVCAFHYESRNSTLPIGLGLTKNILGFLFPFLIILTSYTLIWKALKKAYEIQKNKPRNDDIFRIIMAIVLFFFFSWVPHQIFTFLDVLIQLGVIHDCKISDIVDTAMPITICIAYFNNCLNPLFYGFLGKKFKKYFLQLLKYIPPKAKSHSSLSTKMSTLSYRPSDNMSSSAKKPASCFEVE

Fusarium oxysporum = experiment: Antifungal activity against Fusarium oxysporum assessed as bacterial growth inhibition at 50 ug/ml incubated for 5 days relative to control; assay type: functional; conditions: 120 h, time 5 day
Cytospora mali = experiment: Antifungal activity against Valsa mali assessed as bacterial growth inhibition at 50 ug/ml incubated for 5 days relative to control; assay type: functional; conditions: 120 h, time 5 day
Fusarium graminearum = experiment: Antifungal activity against Gibberella zeae assessed as bacterial growth inhibition at 50 ug/ml incubated for 5 days relative to control; assay type: functional; conditions: 120 h, time 5 day
[3] = biological target: T2, Type-2 angiotensin II receptor (Rattus norvegicus, UniProt P35351); experiment: Binding affinity to AT2 in rat brain; assay type: tissue-based
T2 sequence (P35351 whole entry): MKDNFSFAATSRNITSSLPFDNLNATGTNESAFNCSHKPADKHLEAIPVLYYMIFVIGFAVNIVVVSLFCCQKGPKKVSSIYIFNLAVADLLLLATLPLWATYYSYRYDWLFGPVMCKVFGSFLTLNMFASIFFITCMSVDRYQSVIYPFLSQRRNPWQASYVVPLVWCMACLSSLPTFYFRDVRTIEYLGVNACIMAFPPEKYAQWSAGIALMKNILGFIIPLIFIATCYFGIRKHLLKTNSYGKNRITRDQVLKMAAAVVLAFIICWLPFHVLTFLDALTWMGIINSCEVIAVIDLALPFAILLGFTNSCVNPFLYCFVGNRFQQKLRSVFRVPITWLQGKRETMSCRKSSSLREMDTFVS

Rattus norvegicus [4] = experiment: Inhibition of AII induced mean arterial blood pressure in rat assessed as vasoconstrictor at 1 mg/kg, po; assay type: functional
Rattus norvegicus [5] = experiment: Inhibition of AII induced rat assessed as vasoconstrictor at 15 mg/kg, iv; assay type: functional

CCCCc1nc2ccc(COC)cc2c(=O)n1Cc1ccc(-c2ccccc2-c2nn[nH]n2)cc1
Activity (Rattus norvegicus [1]): 65 mmHg | IC50 [2]: > 1000 nM

CCCCc1nc2ccc(C(C)(C)OC)cc2c(=O)n1Cc1ccc(-c2ccccc2-c2nn[nH]n2)cc1 [CL-329167]
Activity (Rattus norvegicus [1]): 65 mmHg | IC50 [2]: 18 nM

CCn1cnc2ccccc2c1=O
inhibition at 50 µg/mL (Fusarium oxysporum): 4.9% | inhibition at 50 µg/mL (Cytospora mali): 0.9% | inhibition at 50 µg/mL (Fusarium graminearum): 5.5%

CCCCc1nc2ccc(C(O)CO)cc2c(=O)n1Cc1ccc(-c2ccccc2-c2nn[nH]n2)cc1 (stereo not drawn)
Activity (Rattus norvegicus [1]): 65 mmHg | IC50 [2]: > 1000 nM

CCCCCN(C(=O)c1ccccc1)c1ccc2nc(CCC)n(Cc3ccc(-c4ccccc4-c4nn[nH]n4)cc3)c(=O)c2c1
IC50 [3]: 1 nM

CCCCc1nc2ccc(C(CC)OC)cc2c(=O)n1Cc1ccc(-c2ccccc2-c2nn[nH]n2)cc1 (stereo not drawn)
Activity (Rattus norvegicus [1]): 65 mmHg | IC50 [2]: 18 nM

CCCCc1nc2ccc([C@H]3C[C@H]4CC[C@H](C)N4O3)cc2c(=O)n1Cc1ccc(-c2ccccc2-c2nnn[nH]2)cc1
Activity (Rattus norvegicus [4]): 55 mmHg

CC(C)c1nc2ccc(N(Cc3ccccc3)C(=O)c3ccccc3)cc2c(=O)n1Cc1ccc(-c2ccccc2-c2nnn[nH]2)cc1
IC50 [3]: 0.22 nM

CCc1nc2ccc(N(Cc3ccccc3)C(=O)c3ccncc3)cc2c(=O)n1Cc1ccc(-c2ccccc2-c2nn[nH]n2)cc1
IC50 [3]: 0.22 nM

CCc1nc2ccc(N(Cc3ccccc3)C(=O)c3cccs3)cc2c(=O)n1Cc1ccc(-c2ccccc2-c2nn[nH]n2)cc1
IC50 [3]: 0.22 nM

Cc1nc2ccc(N(Cc3ccccc3)C(=O)c3ccccc3)cc2c(=O)n1Cc1ccc(-c2ccccc2-c2nnn[nH]2)cc1
IC50 [3]: 0.22 nM

CCCn1cnc2ccc(Cl)cc2c1=O
inhibition at 50 µg/mL (Fusarium oxysporum): 4.9% | inhibition at 50 µg/mL (Cytospora mali): 40.9% | inhibition at 50 µg/mL (Fusarium graminearum): 5.5%

CCc1nc2ccc(N(CC=C(C)C)C(=O)c3ccccc3)cc2c(=O)n1Cc1ccc(-c2ccccc2-c2nn[nH]n2)cc1
IC50 [3]: 0.46 nM

C=CCn1cnc2ccccc2c1=O
inhibition at 50 µg/mL (Fusarium oxysporum): 4.9% | inhibition at 50 µg/mL (Cytospora mali): 0.9% | inhibition at 50 µg/mL (Fusarium graminearum): 5.5%

CCC1Nc2ccccc2C(=O)N1Cc1ccc(-c2ccccc2-c2nn[nH]n2)cc1 (stereo not drawn)
inhibition in vivo at 15 mg/kg (Rattus norvegicus [5]): 88% | IC50 [2]: 45000 nM

CCCCc1nc2ccc([C@]3(CC)C[C@H]4CCCN4O3)cc2c(=O)n1Cc1ccc(-c2ccccc2-c2nn[nH]n2)cc1
Activity (Rattus norvegicus [4]): 55 mmHg

CCCCc1nc2ccc([C@@]3(c4ccccc4)C[C@H]4CCCN4O3)cc2c(=O)n1Cc1ccc(-c2ccccc2-c2nnn[nH]2)cc1
Activity (Rattus norvegicus [4]): 55 mmHg

CC(C)c1nc2ccc(N(Cc3ccccc3)C(=O)c3cccs3)cc2c(=O)n1Cc1ccc(-c2ccccc2-c2nnn[nH]2)cc1
IC50 [3]: 0.22 nM

CCCCc1nc2ccc([C@H]3C[C@H]4CCCCN4O3)cc2c(=O)n1Cc1ccc(-c2ccccc2-c2nnn[nH]2)cc1
Activity (Rattus norvegicus [4]): 55 mmHg

CCCCc1nc2ccc(C(C)(C)O)cc2c(=O)n1Cc1ccc(-c2ccccc2-c2nn[nH]n2)cc1
Activity (Rattus norvegicus [1]): 65 mmHg | IC50 [2]: 5 nM

CCCCc1nc2ccc([C@]3(C)C[C@H]4CCCCN4O3)cc2c(=O)n1Cc1ccc(-c2ccccc2-c2nn[nH]n2)cc1
Activity (Rattus norvegicus [4]): 55 mmHg

CCCn1cnc2ccccc2c1=O
inhibition at 50 µg/mL (Fusarium oxysporum): 4.9% | inhibition at 50 µg/mL (Cytospora mali): 0.9% | inhibition at 50 µg/mL (Fusarium graminearum): 5.5%

CCCCc1nc2ccc([C@@]3(C)C[C@H]4CC[C@H](C)N4O3)cc2c(=O)n1Cc1ccc(-c2ccccc2-c2nnn[nH]2)cc1
Activity (Rattus norvegicus [4]): 55 mmHg

C=CCn1cnc2ccc(Br)cc2c1=O
inhibition at 50 µg/mL (Fusarium oxysporum): 4.9% | inhibition at 50 µg/mL (Cytospora mali): 30.4% | inhibition at 50 µg/mL (Fusarium graminearum): 5.5%

CCCCc1nc2ccc([C@@]3(C(=O)N(C)C)C[C@H]4CCCN4O3)cc2c(=O)n1Cc1ccc(-c2ccccc2-c2nnn[nH]2)cc1
Activity (Rattus norvegicus [4]): 55 mmHg

CCCC1Nc2ccc(C(C)C)cc2C(=O)N1Cc1ccc(-c2ccccc2-c2nn[nH]n2)cc1 (stereo not drawn)
inhibition in vivo at 15 mg/kg (Rattus norvegicus [5]): 88% | IC50 [2]: 50 nM
